In patent US20190054117A1, “DIMERIZATION SWITCHES AND USES THEREOF” (priority 2014, published 2019):

What follows are substances tested against biotinylated FKBP in the presence of everolimus (RAD001) (assay: EC50 direct binding assay (AlphaLISA): FLAG FRB protein and biotinylated FKBP with serially diluted everolimus). Settings: 30 nM FLAG-tagged FRB, 30 nM biotinylated FKBP; everolimus serial diluted 1:3 from 600 nM.
Protocol: In a direct binding assay, unlabeled candidate mutant FRB is incubated in solution with tagged wild-type FKBP in the presence of the dimerization molecule, e.g., under conditions suitable for binding of FRB to the dimerization molecule and dimerization of FRB and FKBP. Tagged FKBP can be removed from the reaction by affinity purification; candidate mutant FRB that is able to bind the dimerization molecule and dimerize with the tagged FKBP will also be removed. […] EC50 values for direct binding affinity can then be calculated using methods known in the art.
FRB mutations were also ranked in an alternative assay format. Briefly, FRB proteins incorporating single and double mutations (SEQ ID NO: 54-58) were produced as FLAG tagged constructs in E. coli as described previously. 30 nM (final) of biotinylated FKBP (SEQ ID NO: 59) and each FLAG FRB protein were combined in the presence of everolimus serial diluted 1:3 from a starting final concentration of 600 nM into a 96 well ½ surface flat-bottom plate (PerkinElmer) and incubated for one hour at room temperature. All dilutions were made in 1× AlphaLISA Immunoassay buffer (PerkinElmer). Anti-Flag acceptor beads (PerkinElmer) were added at 10 ug/ml final concentration and incubated for one hour at room temperature. Streptavidin donor beads (PerkinElmer), were then added at a final concentration of 40 ug/ml and the plate was protected from light and incubated for 30 minutes at room temperature. The plate was then read on the PerkinElmer EnVision Multiplate reader equipped with the Alpha Module using excitation of 680 nm and a 570 nm Emission filter.

biotinylated FKBP in the presence of everolimus (RAD001), sequence (P62942 2-108 limits assumed): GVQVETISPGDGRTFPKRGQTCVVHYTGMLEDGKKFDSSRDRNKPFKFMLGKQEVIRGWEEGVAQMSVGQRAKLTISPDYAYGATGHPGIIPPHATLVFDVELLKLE

| EC50 | Substance |
| --- | --- |
| 2.46 nM | E2032I: mutant FRB derived switch domain with E2032I; His-tagged (competition) or His-FLAG-tagged (direct assay) |
| 2.15 nM | E2032L: mutant FRB derived switch domain with E2032L; His-tagged (competition) or His-FLAG-tagged (direct assay) |
| 1.44 nM | T2098L: mutant FRB derived switch domain with T2098L; His-tagged (competition) or His-FLAG-tagged (direct assay) |
| 3.9 nM | Wild type FRB (1): wild type FRB domain of FRAP/mTOR (residues 2021-2113); His-tagged in competition assay, His-FLAG-tagged in direct assay [reference compound] |
